Results taken from US20220387370A1, “METHODS OF REDUCING NEUROLOGICAL DAMAGE IN WILSON DISEASE PATIENTS” (priority 2019, published 2022).
“Also recorded” adds a separate entry of the source.

Experiments:
[1] = biological target: Cu-albumin complex (bovine serum albumin) (Bos taurus, UniProt P02769); conditions: 750 μM copper, 250 μM albumin, molar ratio Cu-albumin-chelator 3:1:3
Experimental: 10 mg of fatty acid free bovine serum albumin (subsequently referred to as albumin, Carl Roth, Karlsruhe, Germany) were resuspended in 10 mM Tris-HCl buffer (pH 7.4) and mixed with 45 μL of 10 mM copper chloride. […] Briefly, 50 μL of each fraction were mixed with 10 μL 0.2% NQS, 10 μL of 0.2 M sodium phosphate buffer (pH 12.0) and 30 μL ddH2O in a clear 96-well plate. The samples were incubated for 20 min and absorbance was measured at 452 nm.

Cu-albumin = Cu-albumin (Bos taurus, UniProt P02769)
Sequence of Cu-albumin (P02769 25-607): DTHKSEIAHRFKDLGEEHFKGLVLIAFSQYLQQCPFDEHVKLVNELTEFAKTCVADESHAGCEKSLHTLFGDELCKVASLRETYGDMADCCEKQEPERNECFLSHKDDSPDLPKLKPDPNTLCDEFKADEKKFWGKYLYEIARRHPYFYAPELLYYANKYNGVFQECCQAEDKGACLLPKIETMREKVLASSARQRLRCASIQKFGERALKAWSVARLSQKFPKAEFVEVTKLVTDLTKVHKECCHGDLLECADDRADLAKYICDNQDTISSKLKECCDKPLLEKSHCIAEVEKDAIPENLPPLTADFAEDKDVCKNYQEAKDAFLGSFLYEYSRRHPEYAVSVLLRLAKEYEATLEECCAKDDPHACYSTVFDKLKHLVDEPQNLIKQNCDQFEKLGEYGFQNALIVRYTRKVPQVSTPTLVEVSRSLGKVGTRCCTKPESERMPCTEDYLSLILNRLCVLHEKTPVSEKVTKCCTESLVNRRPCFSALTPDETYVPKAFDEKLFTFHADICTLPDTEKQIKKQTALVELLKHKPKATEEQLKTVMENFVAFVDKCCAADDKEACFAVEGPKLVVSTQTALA
Experimental: EPR spectra were recorded at 77 K using an ECS106 spectrometer (Brucker BioSpin, Karlsruhe, Germany) operating in X-band at about 9.5 GHz.

[2] = test system: HepG2, EA.hy926, U87MG and SHSY5Y cells; assay: Cu-albumin cell toxicity, CellTiter-Glo, all investigated cell lines; assay type: cell-based, human; conditions: 750 μM chelator, 250 μM albumin, copper 250 to 2500 μM, 24 h
Experimental: (§1) SHSY5Y (human neuroblastoma), U87MG (human astrocytoma), EA.hy926 (human endothelium) and HepG2 (human hepatocellular carcinoma) cells were from ATCC (Wesel, Germany) and were cultured in Dulbecco's Modified Eagle Medium (DMEM) supplemented with 10% FCS (Biochrom, Berlin, Germany) and 1% antibiotic-antimycotic (Life Technologies, Carlsbad, USA). All cells were maintained at 37° C. in a humidified atmosphere with 5% CO2.

EA.hy926 cells [3] = assay: Cu-albumin cell toxicity, CellTiter-Glo, EA.hy926; assay type: cell-based, human
Experimental: as §1

HepG2 cells = assay: Cellular copper content (ICP-OES), HepG2; assay type: cell-based, human; conditions: 750 μM copper, 250 μM albumin, 750 μM chelator, vs Cu-albumin alone
Text: Afterwards, cells were trypsinized and counted.

EA.hy926 cells [4] = assay: High-resolution respirometry, EA.hy926; assay type: cell-based, human; conditions: EA.hy926, Cu-albumin-treated, vs Cu-albumin alone
Experimental: (§2) Oxygen consumption was assessed by high-resolution respirometry (HRR) using the Oxygraph-2k and DatLab 7.0 (Oroboros Instruments GmbH, Innsbruck, Austria) as described previously (Pesta, D. and E. Gnaiger, Methods Mol Biol, 2012. 810: p. 25-58). Per chamber, 1.5-2×10^6 living cells were supplied in 2 mL of MiR05 buffer (0.5 mM EGTA, 3 mM MgCl2, 60 mM lactobionic acid, 20 mM taurine, 10 mM KH2PO4, 20 mM HEPES, 110 mM sucrose, 1 g/L albumin, pH 7.1) and routine respiration was measured. Addition of 2.5 μM oligomycin (inhibitor of the FOF1-ATPase) enabled the measurement of leak respiration and stepwise addition of CCCP (1 μL steps from 1 mM stock solution) allowed the determination of the maximum oxygen flux and thereby the capacity of the electron transport system (ETS). The oxygen flux was baseline-corrected for non-mitochondrial oxygen consuming processes (ROX) by the addition of 2.5 μM of the complex III-inhibitor antimycin A.

U87MG cells = assay: High-resolution respirometry, U87MG; assay type: cell-based, human; conditions: Cu-albumin-treated, vs Cu-albumin alone
Experimental: as §2

EA.hy926 and U87MG cells = assay: Electron microscopy of mitochondrial structure; assay type: cell-based, human; conditions: electron micrographs, co-treatment with chelator
Text: Electron microscopy of cells was done as previously described ([…]., et al., Cell Mol Gastroenterol Hepatol, 2018. 7(3): p. 571-596) on a 1200EX electron microscope (JEOL, […], Japan) at 60 kv. Pictures were taken with a […] digital camera (Olympus, Hamburg, Germany) and processed by the iTEM software package (analySIS FIVE, Olympus, Hamburg, Germany).

PBCEC monolayers [5] = assay: Copper in the basolateral compartment of the Transwell PBCEC model (ICP-MS/MS); assay type: cell-based, porcine; conditions: 250 μM copper and 83.3 μM albumin, 250 μM chelator, after 48 h
Text: For transepithelial resistance (TEER) experiments (Srinivasan, B., et al., J Lab Autom, 2015. 20(2): p. 107-26), cryopreserved primary porcine brain capillary endothelial cells (PBCECs) were thawed and seeded either on rat tail collagen-coated 96-well plates for cytotoxicity testing using the Neutral red assay (Repetto, G., A. del Peso, and J. L. Zurita, Nat Protoc, 2008. 3(7): p. 1125-31) or Transwell® inserts (area: 1.12 cm^2, pore size: 0.4 μm: Corning, N.Y., USA) for barrier integrity studies. Cells were cultured for 48 hours in Earle's Medium 199 supplemented with 10% FCS, 50 U penicillin/mL, 50 μg/mL streptomycin, 100 μg/mL gentamycin and 0.7 mM I-glutamine and maintained at 37° C. in a humidified atmosphere with 5% CO2. […] TEER and capacitance values were continuously monitored over 48 h using a CellZscope device (nanoAnalytics, Münster, Germany). Only PBCEC monolayers with initial TEER values >600Ωcm^2 and capacitance values between 0.45 and 0.6 μF/cm^2 were used for permeability studies (Bornhorst, J., et al., J Biol Chem, 2012. 287(21): p. 17140-51). The barrier integrity was calculated by normalizing the TEER values to the respective start values.

PBCEC monolayers [6] = assay: Electron microscopy of tight junctions of PBCECs; assay type: cell-based, porcine; conditions: copper-treated PBCECs, electron micrographs
Experimental: Electron microscopy of PBCECS grown on Transwell® inserts was performed as previously described (Ye, D., K. A. Dawson, and I. Lynch, Analyst, 2015. 140(1): p. 83-97) with minor modifications. Briefly, after fixation with 2.5% glutaraldehyde, cell monolayers were post-fixed with 1% osmium tetroxide for 30 min and dehydrated by ethanol.

[7] = test system: HepG2, EA.hy926, U87MG and SHSY5Y cells; conditions: 750 μM copper, 250 μM albumin, 750 μM chelator
Experimental: 2×10^4 cells were seeded into each well of a 96-well plate and incubated overnight. […] Cell toxicity was either determined by CellTiter-Glo® assay (Promega, Madison, USA) or Trypan blue exclusion test.
Afterwards, cells were trypsinized and counted. Cell viability was determined by Trypan blue exclusion test.

patients with WD = conditions: cited from earlier work

Sequence of Cu-albumin complex (bovine serum albumin) (P02769 25-607, one chain of several): as the sequence (P02769 25-607) above

C[N+](C)(C)CCO.C[N+](C)(C)CCO.[SH-].[SH-].[S]=[Mo]=[S] [ALXN1840, bis-choline tetrathiomolybdate]
distribution of copper, albumin and chelator over gel filtration fractions [1]: one prominent gel filtration peak appeared; also recorded: albumin, molybdenum and copper were present in the same fractions
drop of signal intensity of EPR-active cupric copper (Cu-albumin; TPC versus Cu-albumin): around 50%
copper redox status in the tripartite complex (EPR) (Cu-albumin; albumin, copper and ALXN1840): partial reduction of copper
CellTiterGlo-assessed cell viability / Cu-albumin toxicity [2]: fully avoided such toxicity up to a Cu-albumin ratio of 4:1
CellTiterGlo-assessed cell viability / Cu-albumin toxicity (EA.hy926 cells [3]; EA.hy926, 750 μM chelator): protected
CellTiterGlo-assessed cell viability / Cu-albumin toxicity (EA.hy926 cells [3]; EA.hy926, low dose of chelator (250 μM)): partially rescued
cellular copper content (HepG2 cells): highly similar cellular copper contents; also recorded: this effect was not present
mitochondrial respiration (ETS) (EA.hy926 cells [4]): significantly increased
respiratory control ratio E/L (ETS to leak respiration) (EA.hy926 cells [4]): significantly increased
respiratory control ratio E/L (ETS to leak respiration) (U87MG cells): tendentiously; also recorded: less pronounced
Cu-albumin-induced alterations of mitochondrial structure (EA.hy926 and U87MG cells): partially avoided these structural abnormalities; also recorded: partially reversed
copper in the basolateral compartment (copper influx) (PBCEC monolayers [5]): fully avoided; also recorded: significantly lower amount of copper
loss of electron-dense protein complexes at the cell-cell borders (PBCEC monolayers [6]): can be prevented
Trypan blue-assessed cell viability / copper-related cell toxicity [7]: cellular viability was significantly maintained; also recorded: protected all cell lines
reduction of mean serum non-ceruloplasmin-bound Cu (NCC) (patients with WD; at Week 24 compared with baseline, 28 patients with WD): 72%
patients with reversible liver function test elevations (patients with WD; mild to moderate, asymptomatic, normalized with dose reduction or interruption): 39%
tolerability (patients with WD; most AEs mild (Grade 1) to moderate (Grade 2)): generally well-tolerated
paradoxical neurological worsening (patients with WD; upon treatment initiation): No paradoxical neurological worsening was observed
